According to patent publication US10322037B2, “Absorbent article” (UNICHARM CORPORATION, priority 2012, dated 2019):

Source text: As used herein, the term “solubility” in regard to water solubility includes cases where the sample completely dissolves in deionized water to form a homogeneous mixture, and cases where the sample is completely emulsified. As used herein, “completely” means that no mass of the sample remains in the deionized water.

SMILES	Water solubility [g]
CCCCCCCCCCCCCC(=O)OCCCCCCCCCCCC [2-19]	<0.05
CCCCCCCCCCCCOC(=O)CCCCCCCCCCC [2-18]	<0.05
